Assay results reported in US20250042886A1, “BIS(HETERO)ARYL THIOETHER OXADIAZINES AS FUNGICIDAL COMPOUNDS” (Bayer Aktiengesellschaft, priority 2021, published 2025).

How the values were obtained:
Botrytis cinerea [1] = test: In vivo preventive test on Botrytis cinerea (grey mould); conditions: 500 ppm of active ingredient, sprayed on young gherkin or cabbage plants 24 h before inoculation, evaluated 4 to 5 days after inoculation, read-out: efficacy
In short: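 Compounds in DMSO/acetone/Tween 80 were diluted in water and sprayed onto young gherkin or cabbage plants; controls got solvent only. After 24 h, leaves were sprayed with an aqueous Botrytis cinerea spore suspension.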

[2] = tested on: Colletotrichum lindemuthianum; test: In vivo preventive test on Colletotrichum lindemuthianum (leaf spot on bean); conditions: 168 h, 500 ppm of active ingredient, sprayed on young bean plants 24 h before inoculation, evaluated 7 days after inoculation, read-out: efficacy
Experimental: (§1) B-4. […] The active ingredients were made soluble and homogenized in a mixture of Dimethyl sulfoxide/Acetone//Tween® 80 and then diluted in water to the desired concentration. The young plants of bean were treated by spraying the active ingredient prepared as described above. Control plants were treated only with an aqueous solution of Acetone/Dimethyl sulfoxide/Tween® 80. After 24 hours, the plants were contaminated by spraying the leaves with an aqueous suspension of Colletotrichum lindemuthianum spores.

Pyricularia oryzae = test: microbe, parasite or virus in culture; format: cell-based; conditions: 120 h, read-out: efficacy (inhibition of fungal growth), 50 μMol/l of active ingredient, liquid culture, 5 days incubation
Fusarium culmorum = Fusarium culmorum in vitro cell test; format: cell-based; conditions: 120 h, 50 μMol/l of active ingredient, liquid culture, 5 days incubation, read-out: efficacy (inhibition of fungal growth)
In short: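 Spores in liquid mineral-salts/saccharose medium exposed to compounds (DMSO ≤1% final) for 5 days. Mycelium growth measured spectrometrically, with inhibition derived from absorbance relative to fungicide-free control wells.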

Alternaria alternata = Alternaria alternata in vitro cell test; format: cell-based; conditions: 120 h, 50 μMol/l of active ingredient, liquid culture, 5 days incubation, read-out: efficacy (inhibition of fungal growth)
Experimental: B-5. Alternaria alternata In Vitro Cell Test • Solvent: DMSO • Culture medium: 14.6 g anhydrous D-glucose (VWR), 7.1 g Mycological Peptone (Oxoid), 1.4 g granulated Yeast Extract (Merck), QSP 1 liter • Inoculum: spores suspension Fungicides were solubilized in DMSO and the solution used to prepare the required range of concentrations. […] A spore suspension of A. alternata was prepared and diluted to the desired spore density. Fungicides were evaluated for their ability to inhibit spore germination and mycelium growth in liquid culture assay. The compounds were added in the desired concentration to the culture medium with spores. After 5 days incubation, fungi-toxicity of compounds was determined by spectrometric measurement of mycelium growth. Inhibition of fungal growth was determined by comparing the absorbance values in wells containing the fungicides with the absorbance in control wells without fungicides.

Pyrenophora teres = Pyrenophora teres in vitro cell test; format: cell-based; conditions: 144 h, 50 μMol/l of active ingredient, liquid culture, 6 days incubation, read-out: efficacy (inhibition of fungal growth)
In short: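 Compounds in DMSO were added to P. teres spore suspensions in glucose/peptone/yeast-extract liquid medium, testing inhibition of spore germination and mycelium growth. After 6 days, mycelium growth was read by absorbance. Inhibition was calculated relative to fungicide-free control wells.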

[3] = Measurement of Log P values by HPLC on reversed phase columns (EEC directive 79/831 Annex V.A8); format: physicochemical; conditions: Table 1, compounds of formula (I); method [a]: LC-UV, acidic range, 0.1% formic acid in water and acetonitrile
[4] = tested on: Colletotrichum lindemuthianum; test: Colletotrichum lindemuthianum in vitro cell test; format: cell-based; conditions: 144 h, 50 μMol/l of active ingredient, liquid culture, 6 days incubation, read-out: efficacy (inhibition of fungal growth)
In short: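 C. lindemuthianum spores in liquid glucose–peptone–yeast extract medium were exposed to compounds dissolved in DMSO. After 6 days, mycelial growth was measured by absorbance, and inhibition was calculated against compound-free control wells.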

Alternaria brassicae = test: In vivo preventive test on Alternaria brassicae (leaf spot on radish or cabbage); conditions: 500 ppm of active ingredient, sprayed on young radish or cabbage plants 24 h before inoculation, evaluated 3 to 4 days after inoculation, read-out: efficacy
Experimental: as §1, with “B-1.” for “B-4.”, “radish or cabbage” for “bean”, “Alternaria brassicae” for “Colletotrichum lindemuthianum”

Botrytis cinerea [5] = test: Botrytis cinerea in vitro cell test; format: cell-based; conditions: 144 h, 50 μMol/l of active ingredient, liquid culture, 6 days incubation, read-out: efficacy (inhibition of fungal growth)
In short: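 Compounds from DMSO stocks added at a range of concentrations to a defined mineral-salt/sucrose liquid medium inoculated with B. cinerea spores. After 6 days' incubation, mycelium growth was read by absorbance; inhibition of germination and growth was calculated against fungicide-free control wells.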

Compound	pest or weed control at 500 ppm (Botrytis cinerea [1]) [%]	pest or weed control at 500 ppm [2] [%]	inhibition at 50 µM (Pyricularia oryzae) [%]	inhibition at 50 µM (Fusarium culmorum) [%]	inhibition at 50 µM (Alternaria alternata) [%]	inhibition at 50 µM (Pyrenophora teres) [%]	chromatographic logP [3]	inhibition at 50 µM [4] [%]	pest or weed control at 500 ppm (Alternaria brassicae) [%]	inhibition at 50 µM (Botrytis cinerea [5]) [%]
Cc1ccc([C@H]2CON=C(c3c(Sc4cccc(F)c4)nnc4ccccc34)N2)s1 (racemic) [Compound I-042]	90 to 100	70 to 79	90 to 100	90 to 100	90 to 100	90 to 100	3.27	90 to 100	90 to 100	90 to 100
Cc1cccc(Sc2nnc3ccccc3c2C2=NOC[C@H](c3ccc(C)s3)N2)c1 (racemic) [Compound I-062]	90 to 100	90 to 100	80 to 89	90 to 100	90 to 100	90 to 100	3.47	90 to 100	90 to 100	90 to 100
Cc1cc([C@H]2CON=C(c3c(Sc4ccccc4)nnc(C)c3C)N2)c(C)s1 (racemic) [Compound I-069]	90 to 100	70 to 79	80 to 89	90 to 100	80 to 89		3.03	90 to 100	80 to 89	90 to 100
Cc1cccc(Sc2nnc(C)c(C)c2C2=NOC[C@H](c3cc(C)sc3C)N2)c1 (racemic) [Compound I-078]	90 to 100	90 to 100	80 to 89	80 to 89	80 to 89	90 to 100	3.33	90 to 100	90 to 100	90 to 100
Cc1ccc([C@H]2CON=C(c3c(Sc4cccc(Cl)c4F)nnc4ccccc34)N2)s1 (racemic) [Compound I-108]	90 to 100	90 to 100	90 to 100	90 to 100	90 to 100	90 to 100	3.68	90 to 100	90 to 100	90 to 100
Cc1ccc([C@H]2CON=C(c3c(Sc4cccc(C(F)(F)F)c4)nnc4ccccc34)N2)s1 (racemic) [Compound I-109]	90 to 100	90 to 100	70 to 79	80 to 89	90 to 100	90 to 100	3.81	90 to 100	90 to 100	90 to 100
Cc1ccc([C@H]2CON=C(c3c(Sc4cccc(Cl)c4)nnc4ccccc34)N2)s1 (racemic) [Compound I-135]	90 to 100	90 to 100	90 to 100	90 to 100	90 to 100	90 to 100	3.61	90 to 100	90 to 100	90 to 100
